Measured values: patent publication US9573957B2 (Boehringer Ingelheim International GmbH, priority 2013, dated 2017)

What was measured:
human LTA4 hydrolase = human LTA4 hydrolase (Homo sapiens (Human), UniProt P09960); assay: LTA4H Enzyme assay (peptidase, Arg-AMC cleavage); type: biochemical; settings: LTA4H Enzyme 1 nM, Arg-AMC substrate 50 μM, room temperature 1 h, fluorescence
Outline: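 Peptidase activity of human LTA4H (1 nM final) on Arg-AMC (50 μM final), with compound, 1 h at room temperature. Buffer: 50 mM Tris-HCl pH 7.5, 100 mM KCl, 0.5% BSA.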

[1] = system: synthesis of LTB4 in human whole blood; assay: LTB4 production inhibition assay in human whole blood (HWB); type: cell-based; settings: heparinized human whole blood, 15 min at 37° C., Calcimycin 20 μM 30 min, plasma LTB4 by HTRF
Outline: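 Heparinized human whole blood preincubated with compound 15 min at 37° C, then stimulated with calcimycin (20 μM final) for 30 min at 37° C. Plasma separated by centrifugation; LTB4 measured by antibody-based homogeneous time-resolved fluorescence.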

Sequence of human LTA4 hydrolase (P09960 whole entry): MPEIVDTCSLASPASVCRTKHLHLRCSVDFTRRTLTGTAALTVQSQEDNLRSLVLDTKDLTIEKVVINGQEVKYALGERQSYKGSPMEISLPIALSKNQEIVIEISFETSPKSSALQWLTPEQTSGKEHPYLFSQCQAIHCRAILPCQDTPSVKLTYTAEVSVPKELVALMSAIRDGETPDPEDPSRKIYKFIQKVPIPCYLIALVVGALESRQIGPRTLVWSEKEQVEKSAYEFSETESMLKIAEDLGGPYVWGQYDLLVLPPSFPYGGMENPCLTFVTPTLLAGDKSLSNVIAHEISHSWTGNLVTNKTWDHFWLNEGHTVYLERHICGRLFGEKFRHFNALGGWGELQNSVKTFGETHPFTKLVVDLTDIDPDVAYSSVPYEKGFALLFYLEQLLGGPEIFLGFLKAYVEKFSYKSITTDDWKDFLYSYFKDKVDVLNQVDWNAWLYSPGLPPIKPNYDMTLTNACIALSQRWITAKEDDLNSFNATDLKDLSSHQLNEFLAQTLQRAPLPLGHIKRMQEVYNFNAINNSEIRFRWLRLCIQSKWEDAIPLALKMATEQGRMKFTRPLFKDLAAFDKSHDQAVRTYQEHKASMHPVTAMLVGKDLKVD

Compound	IC50 (human LTA4 hydrolase) [nM]	IC50 [1] [nM]
O=C(CN1CCN(Cc2coc3cc(Oc4ccc(-c5ccn[nH]5)cn4)ccc23)CC1)N1CCCC1 [Example 111, 2-(4-{6-[5-(2H-Pyrazol-3-yl)-pyridin-2-yloxy]-benzofuran-3-ylmethyl}-piperazin-1-yl)-1-pyrrolidin-1-yl-ethanone]	0.68	170
CC(=O)N1CCN(C(=O)c2coc3cc(Oc4ccc(-c5ccn[nH]5)cn4)ccc23)CC1 [Example 112, 1-(4-{6-[5-(2H-Pyrazol-3-yl)-pyridin-2-yloxy]-benzofuran-3-carbonyl}-piperazin-1-yl)-ethanone]	1.9	350
CN(C(=O)CO)[C@@H]1CCN(Cc2coc3cc(Oc4ccc(-c5ccn[nH]5)cn4)ccc23)C1 [Example 113, 2-Hydroxy-N-methyl-N-((R)-1-{6-[5-(2H-pyrazol-3-yl)-pyridin-2-yloxy]-benzofuran-3-ylmethyl}-pyrrolidin-3-yl)-acetamide]	0.42	160
CN(C(=O)CO)[C@H]1CCN(Cc2coc3cc(Oc4ccc(-c5ccn[nH]5)cn4)ccc23)C1 [Example 114, 2-Hydroxy-N-methyl-N-((S)-1-{6-[5-(2H-pyrazol-3-yl)-pyridin-2-yloxy]-benzofuran-3-ylmethyl}-pyrrolidin-3-yl)-acetamide]	0.56	150
O=C(CO)N1CCC2(CCN(Cc3coc4cc(Oc5ccc(-c6ccn[nH]6)cn5)ccc34)C2)C1 (centres unmarked) [Example 115, 2-Hydroxy-1-(7-{6-[5-(2H-pyrazol-3-yl)-pyridin-2-yloxy]-benzofuran-3-ylmethyl}-2,7-diaza-spiro[4.4]non-2-yl)-ethanone]	0.43	120
N#CC1(C(=O)N2CCN(Cc3ccc4cc(Oc5ccc(-c6ccn[nH]6)cn5)ccc4n3)CC2)CC1 [Example 116, 1-(4-{6-[5-(2H-Pyrazol-3-yl)-pyridin-2-yloxy]-quinolin-2-ylmethyl}-piperazine-1-carbonyl)-cyclopropanecarbonitrile]	0.87	240
C[C@H](O)CC(=O)N1CCN(Cc2ccc3cc(Oc4ccc(-c5ccn[nH]5)cn4)ccc3n2)CC1 [Example 117, (S)-3-Hydroxy-1-(4-{6-[5-(2H-pyrazol-3-yl)-pyridin-2-yloxy]-quinolin-2-ylmethyl}-piperazin-1-yl)-butan-1-one]	3.7	670
CO[C@@H](C)C(=O)N1CCN(Cc2ccc3cc(Oc4ccc(-c5ccn[nH]5)cn4)ccc3n2)CC1 [Example 118, (S)-2-Methoxy-1-(4-{6-[5-(2H-pyrazol-3-yl)-pyridin-2-yloxy]-quinolin-2-ylmethyl}-piperazin-1-yl)-propan-1-one]	0.67	170
O=C(N1CCN(Cc2ccc3cc(Oc4ccc(-c5ccn[nH]5)cn4)ccc3n2)CC1)C1(O)CCCC1 [Example 119, (1-Hydroxy-cyclopentyl)-(4-{6-[5-(2H-pyrazol-3-yl)-pyridin-2-yloxy]-quinolin-2-ylmethyl}-piperazin-1-yl)-methanone]	8.6	1200
CC(C)[C@@H](O)C(=O)N1CCN(Cc2ccc3cc(Oc4ccc(-c5ccn[nH]5)cn4)ccc3n2)CC1 [Example 120, (R)-2-Hydroxy-3-methyl-1-(4-{6-[5-(2H-pyrazol-3-yl)-pyridin-2-yloxy]-quinolin-2-ylmethyl}-piperazin-1-yl)-butan-1-one]	5.9	700
C[C@@H](O)CC(=O)N1CCN(Cc2ccc3cc(Oc4ccc(-c5ccn[nH]5)cn4)ccc3n2)CC1 [Example 121, (R)-3-Hydroxy-1-(4-{6-[5-(2H-pyrazol-3-yl)-pyridin-2-yloxy]-quinolin-2-ylmethyl}-piperazin-1-yl)-butan-1-one]	4.9	620
CC(C)(O)CC(=O)N1CCN(Cc2ccc3cc(Oc4ccc(-c5ccn[nH]5)cn4)ccc3n2)CC1 [Example 122, 3-Hydroxy-3-methyl-1-(4-{6-[5-(2H-pyrazol-3-yl)-pyridin-2-yloxy]-quinolin-2-ylmethyl}-piperazin-1-yl)-butan-1-one]	3.9	570
C[C@@H](O)C(=O)N1CCN(Cc2ccc3cc(Oc4ccc(-c5ccn[nH]5)cn4)ccc3n2)CC1 [Example 123, (R)-2-Hydroxy-1-(4-{6-[5-(2H-pyrazol-3-yl)-pyridin-2-yloxy]-quinolin-2-ylmethyl}-piperazin-1-yl)-propan-1-one]	0.88	200

Next, values leading:

IC50 (human LTA4 hydrolase) [nM]	IC50 [1] [nM]	Compound
2.6	420	CCOCC(=O)N1CCN(Cc2ccc3cc(Oc4ccc(-c5ccn[nH]5)cn4)ccc3n2)CC1 [Example 124, 2-Ethoxy-1-(4-{6-[5-(2H-pyrazol-3-yl)-pyridin-2-yloxy]-quinolin-2-ylmethyl}-piperazin-1-yl)-ethanone]
1.2	340	CC(C)(O)C(=O)N1CCN(Cc2ccc3cc(Oc4ccc(-c5ccn[nH]5)cn4)ccc3n2)CC1 [Example 125, 2-Hydroxy-2-methyl-1-(4-{6-[5-(2H-pyrazol-3-yl)-pyridin-2-yloxy]-quinolin-2-ylmethyl}-piperazin-1-yl)-propan-1-one]
1	250	O=C(N1CCN(Cc2ccc3cc(Oc4ccc(-c5ccn[nH]5)cn4)ccc3n2)CC1)C1(O)CC1 [Example 126, (1-Hydroxy-cyclopropyl)-(4-{6-[5-(2H-pyrazol-3-yl)-pyridin-2-yloxy]-quinolin-2-ylmethyl}-piperazin-1-yl)-methanone]
2.3	320	CC[C@H](O)C(=O)N1CCN(Cc2ccc3cc(Oc4ccc(-c5ccn[nH]5)cn4)ccc3n2)CC1 [Example 127, (S)-2-Hydroxy-1-(4-{6-[5-(2H-pyrazol-3-yl)-pyridin-2-yloxy]-quinolin-2-ylmethyl}-piperazin-1-yl)-butan-1-one]
0.56	240	COC(C)(C)C(=O)N1CCN(Cc2ccc3cc(Oc4ccc(-c5ccn[nH]5)cn4)ccc3n2)CC1 [Example 128, 2-Methoxy-2-methyl-1-(4-{6-[5-(2H-pyrazol-3-yl)-pyridin-2-yloxy]-quinolin-2-ylmethyl}-piperazin-1-yl)-propan-1-one]
0.86	180	C[C@H](O)C(=O)N1CCN(Cc2ccc3cc(Oc4ccc(-c5ccn[nH]5)cn4)ccc3n2)CC1 [Example 129, (S)-2-Hydroxy-1-(4-{6-[5-(2H-pyrazol-3-yl)-pyridin-2-yloxy]-quinolin-2-ylmethyl}-piperazin-1-yl)-propan-1-one]
2.5	630	CC(C)OCC(=O)N1CCN(Cc2ccc3cc(Oc4ccc(-c5ccn[nH]5)cn4)ccc3n2)CC1 [Example 130, 2-Isopropoxy-1-(4-{6-[5-(2H-pyrazol-3-yl)-pyridin-2-yloxy]-quinolin-2-ylmethyl}-piperazin-1-yl)-ethanone]
2.3	360	O=C(C1CCOCC1)N1CCN(Cc2ccc3cc(Oc4ccc(-c5ccn[nH]5)cn4)ccc3n2)CC1 [Example 131, (4-{6-[5-(2H-Pyrazol-3-yl)-pyridin-2-yloxy]-quinolin-2-ylmethyl}-piperazin-1-yl)-(tetrahydro-pyran-4-yl)-methanone]
2.9	630	O=C([C@@H]1CCCO1)N1CCN(Cc2ccc3cc(Oc4ccc(-c5ccn[nH]5)cn4)ccc3n2)CC1 [Example 132, (4-{6-[5-(2H-Pyrazol-3-yl)-pyridin-2-yloxy]-quinolin-2-ylmethyl}-piperazin-1-yl)-(S)-tetrahydro-furan-2-yl-methanone]
